Key:
[1] = target: Hepatocyte growth factor receptor (Homo sapiens, UniProt P08581); assay: Inhibition of MET signaling in human MKN45 cells assessed as reduction in phosphorylation of AKT after 2 hrs by Western blotting analysis; format: cell-based; settings: MKN-45, dose 10-100 nM
[2] = target: Tyrosine-protein kinase BTK (Homo sapiens, UniProt Q06187); assay: Inhibition of full length recombinant human BTK using KVEKIGEGTYGVVYK as substrate incubated for 40 mins in presence of [gamma-33P]-ATP by scintillation counting based radiometry assay
[3] = Half life in ICR mouse at 3 mg/kg, po measured upto 24 hrs by LC-MS analysis; format: ADME, organism-based; settings: in vivo

Tyrosine-protein kinase BTK, sequence (Q06187 whole entry): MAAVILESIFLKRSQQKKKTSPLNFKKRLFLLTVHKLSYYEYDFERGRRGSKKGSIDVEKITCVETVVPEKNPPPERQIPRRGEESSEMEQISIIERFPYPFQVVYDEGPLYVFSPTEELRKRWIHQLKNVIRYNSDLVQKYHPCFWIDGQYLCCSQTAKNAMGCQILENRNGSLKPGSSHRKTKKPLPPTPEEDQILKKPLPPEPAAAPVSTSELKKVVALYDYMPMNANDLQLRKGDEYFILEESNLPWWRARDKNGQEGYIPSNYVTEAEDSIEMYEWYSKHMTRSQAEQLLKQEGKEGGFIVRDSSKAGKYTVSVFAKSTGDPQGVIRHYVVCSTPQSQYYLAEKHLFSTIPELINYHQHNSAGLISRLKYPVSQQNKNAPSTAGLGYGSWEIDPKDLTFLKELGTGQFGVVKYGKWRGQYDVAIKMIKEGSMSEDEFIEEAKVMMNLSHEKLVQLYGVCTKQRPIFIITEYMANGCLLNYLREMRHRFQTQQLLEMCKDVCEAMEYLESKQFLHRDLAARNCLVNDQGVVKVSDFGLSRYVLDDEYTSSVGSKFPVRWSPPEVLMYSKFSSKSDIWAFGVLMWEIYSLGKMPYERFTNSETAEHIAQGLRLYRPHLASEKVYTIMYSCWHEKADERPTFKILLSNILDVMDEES
Hepatocyte growth factor receptor, sequence (P08581 whole entry): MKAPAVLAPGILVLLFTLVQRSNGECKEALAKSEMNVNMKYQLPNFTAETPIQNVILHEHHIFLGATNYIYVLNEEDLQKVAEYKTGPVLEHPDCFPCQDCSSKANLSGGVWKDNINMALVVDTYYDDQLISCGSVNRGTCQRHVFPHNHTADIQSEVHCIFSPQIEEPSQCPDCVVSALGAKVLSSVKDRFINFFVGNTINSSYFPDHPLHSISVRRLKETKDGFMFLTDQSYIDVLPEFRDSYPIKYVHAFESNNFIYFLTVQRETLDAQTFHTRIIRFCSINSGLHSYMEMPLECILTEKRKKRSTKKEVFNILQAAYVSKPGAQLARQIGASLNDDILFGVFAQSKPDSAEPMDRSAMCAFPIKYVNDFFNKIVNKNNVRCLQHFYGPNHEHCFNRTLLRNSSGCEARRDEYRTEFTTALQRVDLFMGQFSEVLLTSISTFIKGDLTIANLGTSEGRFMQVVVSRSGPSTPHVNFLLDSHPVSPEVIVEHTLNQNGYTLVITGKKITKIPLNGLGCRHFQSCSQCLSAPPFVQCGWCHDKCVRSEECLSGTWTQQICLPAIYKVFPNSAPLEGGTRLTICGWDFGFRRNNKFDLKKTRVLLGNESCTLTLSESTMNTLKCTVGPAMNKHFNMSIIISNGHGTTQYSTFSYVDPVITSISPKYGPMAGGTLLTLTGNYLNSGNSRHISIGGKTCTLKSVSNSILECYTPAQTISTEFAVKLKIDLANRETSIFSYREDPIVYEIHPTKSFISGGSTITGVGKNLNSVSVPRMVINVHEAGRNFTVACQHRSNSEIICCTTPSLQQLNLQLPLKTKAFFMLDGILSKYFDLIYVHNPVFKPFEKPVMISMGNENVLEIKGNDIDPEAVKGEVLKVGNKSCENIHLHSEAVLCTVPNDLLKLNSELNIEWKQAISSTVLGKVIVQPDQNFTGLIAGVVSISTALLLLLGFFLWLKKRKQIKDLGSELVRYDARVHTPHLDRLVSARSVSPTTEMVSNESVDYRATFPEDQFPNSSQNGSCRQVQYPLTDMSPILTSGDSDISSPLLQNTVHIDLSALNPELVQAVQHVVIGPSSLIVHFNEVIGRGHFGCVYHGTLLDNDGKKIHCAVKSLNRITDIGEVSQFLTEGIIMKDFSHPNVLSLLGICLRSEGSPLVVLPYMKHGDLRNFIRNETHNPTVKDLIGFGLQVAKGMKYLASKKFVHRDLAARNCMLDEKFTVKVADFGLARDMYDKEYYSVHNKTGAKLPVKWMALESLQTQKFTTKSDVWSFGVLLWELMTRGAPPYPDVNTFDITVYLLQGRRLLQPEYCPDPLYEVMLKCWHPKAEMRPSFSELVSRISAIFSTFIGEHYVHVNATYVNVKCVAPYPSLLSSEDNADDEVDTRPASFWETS

- inhibition [1]: Dose-Dependent Effect
- IC50 [2]: > 1000 nM
- half-life [3]: 5.2 h
Structure (SMILES): CC(C)n1cc(C(=O)Nc2ccc(Oc3ccnc(NC(=O)C4CC4)c3)c(F)c2)c(=O)n(-c2ccc(F)cc2)c1=O

Reference: ChEMBL document CHEMBL4823249, “Discovery of a Pyrimidinedione Derivative as a Potent and Orally Bioavailable Axl Inhibitor” (J Med Chem, 2021)
